Measured values published in the supplement of paper PMC11451515.

Experiments:
NOMO1 = experiment: AUC of viability dose-response curve (% viability x log10 dose units); higher = less sensitive; details: 48 h
Summary of the method: (§1)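 Medium-adapted leukemia cells in 1536-well plates, at 500 or 1000 cells/well, were incubated for 48 h at 37°C with library compounds in DMSO at 11 threefold doses from 47 μM to 0.79 nM. CellTiter-Glo One luminescence normalised per plate to DMSO and cell-free wells was fitted with a four-parameter log-logistic model over log10 doses. Area under the curve was integrated from this fit by trapezoidal rule, with curves beyond full viability scaled and failed quality-control curves removed.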

SEM cells [1] = experiment: as above; details: 48 h
Summary of the method: as §1

P12-Ichikawa [2] = experiment: as above; details: 48 h
Summary of the method: as §1

SEM cells [3] = experiment: cell viability relative to DMSO control; higher = less cytotoxic; details: 48 h
Summary of the method: (§2)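 Viability was expressed as a per-plate percentage of DMSO wells, with cell-free wells as background. Leukemia cells (NOMO1 or SEM at 500 cells/well, P12-Ichikawa at 1000 cells/well) were adapted for at least four passages in each medium and seeded in 1536-well plates (5 μl). Library compounds in DMSO were pin-dosed over an 11-point threefold series from 47 μM to 0.79 nM, and CellTiter-Glo One luminescence was read after 48 h at 37°C.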

P12-Ichikawa [4] = experiment: as above; details: HPLM + 10% dialyzed FBS, 48 h
Summary of the method: as §2

CCC[C@H](NC(=O)[C@@H]1[C@H]2CCC[C@H]2CN1C(=O)[C@@H](NC(=O)[C@@H](NC(=O)c1cnccn1)C1CCCCC1)C(C)(C)C)C(=O)C(=O)NC1CC1
AUC of viability dose-response curve
Details	NOMO1	P12-Ichikawa [2]	SEM cells [1]
HPLM + 10% dialyzed FBS	461	474	454
RPMI 5 mM glucose + 10% FBS	474	473	469
RPMI 5 mM glucose + 10% dialyzed FBS	472	476	470

SEM cells [3], HPLM + 10% dialyzed FBS
Details	cell viability [%]
0.000781 µM	106
0.00234 µM	99.8
0.00702 µM	106
0.0211 µM	106
0.0632 µM	111
0.19 µM	118
0.569 µM	118
1.71 µM	119
5.12 µM	127
15.4 µM	111
46.1 µM	116

CCn1cc(-c2ccnc3[nH]c(-c4cccc(CN(C)C)c4)cc23)c(-c2ccc(NC(=O)N(C)C)cc2)n1
AUC of viability dose-response curve
Details	NOMO1	P12-Ichikawa [2]	SEM cells [1]
HPLM + 10% dialyzed FBS	375	220	271
RPMI 5 mM glucose + 10% FBS	318	234	224
RPMI 5 mM glucose + 10% dialyzed FBS	323	252	233

SEM cells [3], HPLM + 10% dialyzed FBS
Details	cell viability [%]
0.000781 µM	123
0.00234 µM	112
0.00702 µM	135
0.0211 µM	138
0.0632 µM	79.6
0.19 µM	52.5
0.569 µM	44.8
1.71 µM	48.9
5.12 µM	41.6
15.4 µM	19.4
46.1 µM	9.33

CCNC(=O)C[C@H]1/N=C(/C2=CC=C(Cl)C=C2)C3=CC(=CC=C3[N]4C(=NN=C14)C)OC
AUC of viability dose-response curve
Details	NOMO1	P12-Ichikawa [2]	SEM cells [1]
HPLM + 10% dialyzed FBS	465	464	442
RPMI 5 mM glucose + 10% FBS	461	460	450
RPMI 5 mM glucose + 10% dialyzed FBS	445	462	440

SEM cells [3], RPMI 5 mM glucose + 10% dialyzed FBS
Details	cell viability [%]
0.000781 µM	122
0.00234 µM	124
0.00702 µM	138
0.0211 µM	119
0.0632 µM	141
0.19 µM	117
0.569 µM	155
1.71 µM	122
5.12 µM	108
15.4 µM	99.4
46.1 µM	22.2

C=C1/C(=C\C=C2/CCC[C@]3(C)[C@@H]([C@H](C)CCCC(C)(C)O)CC[C@@H]23)C[C@@H](O)C[C@@H]1O
Details	AUC of viability dose-response curve	cell viability [%]
NOMO1, HPLM + 10% dialyzed FBS	440	–
NOMO1, RPMI 5 mM glucose + 10% FBS	448	–
NOMO1, RPMI 5 mM glucose + 10% dialyzed FBS	448	–
P12-Ichikawa [2], HPLM + 10% dialyzed FBS	454	–
P12-Ichikawa [2], RPMI 5 mM glucose + 10% FBS	445	–
P12-Ichikawa [2], RPMI 5 mM glucose + 10% dialyzed FBS	458	–
P12-Ichikawa [4], 0.000781 µM	–	122
P12-Ichikawa [4], 0.00234 µM	–	126
P12-Ichikawa [4], 0.00702 µM	–	118
P12-Ichikawa [4], 0.0211 µM	–	131
P12-Ichikawa [4], 0.0632 µM	–	124
P12-Ichikawa [4], 0.19 µM	–	123
P12-Ichikawa [4], 0.569 µM	–	120
P12-Ichikawa [4], 1.71 µM	–	117
P12-Ichikawa [4], 15.4 µM	–	118
P12-Ichikawa [4], 46.1 µM	–	90.4
SEM cells [1], HPLM + 10% dialyzed FBS	459	–
SEM cells [1], RPMI 5 mM glucose + 10% FBS	449	–
SEM cells [1], RPMI 5 mM glucose + 10% dialyzed FBS	450	–

SEM cells [3], RPMI 5 mM glucose + 10% FBS
Details	cell viability [%]
0.000781 µM	105
0.00234 µM	120
0.00702 µM	117
0.0211 µM	113
0.0632 µM	123
0.19 µM	110
0.569 µM	126
1.71 µM	113
5.12 µM	92.9
15.4 µM	98.7
46.1 µM	57.2
